Data on 17 molecules can be found in ChEMBL document CHEMBL5291721, “A preclinical secondary pharmacology resource illuminates target-adverse drug reaction associations of marketed drugs” (Nat Commun, 2023).

Assay [1] concerns the target T1, Muscarinic acetylcholine receptor M1 (Homo sapiens, UniProt P11229).
T1 sequence (P11229 whole entry): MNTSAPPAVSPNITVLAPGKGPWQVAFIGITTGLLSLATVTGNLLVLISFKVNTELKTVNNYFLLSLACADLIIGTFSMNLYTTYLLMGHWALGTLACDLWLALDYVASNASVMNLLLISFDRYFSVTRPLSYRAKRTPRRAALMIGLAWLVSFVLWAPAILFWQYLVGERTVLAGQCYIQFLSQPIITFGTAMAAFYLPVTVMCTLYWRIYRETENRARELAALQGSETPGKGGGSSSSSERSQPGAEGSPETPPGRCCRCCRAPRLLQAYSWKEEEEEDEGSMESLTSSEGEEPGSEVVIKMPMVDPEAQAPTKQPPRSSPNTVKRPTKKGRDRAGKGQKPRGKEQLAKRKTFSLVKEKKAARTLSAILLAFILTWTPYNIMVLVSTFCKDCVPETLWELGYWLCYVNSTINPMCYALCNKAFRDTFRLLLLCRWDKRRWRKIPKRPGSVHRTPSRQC
In kind it is functional, cell-based.

In assay [2] the target is Synaptic vesicular amine transporter (Rattus norvegicus, UniProt Q01827). In kind it is functional.
Chain of Synaptic vesicular amine transporter (Q01827 whole entry): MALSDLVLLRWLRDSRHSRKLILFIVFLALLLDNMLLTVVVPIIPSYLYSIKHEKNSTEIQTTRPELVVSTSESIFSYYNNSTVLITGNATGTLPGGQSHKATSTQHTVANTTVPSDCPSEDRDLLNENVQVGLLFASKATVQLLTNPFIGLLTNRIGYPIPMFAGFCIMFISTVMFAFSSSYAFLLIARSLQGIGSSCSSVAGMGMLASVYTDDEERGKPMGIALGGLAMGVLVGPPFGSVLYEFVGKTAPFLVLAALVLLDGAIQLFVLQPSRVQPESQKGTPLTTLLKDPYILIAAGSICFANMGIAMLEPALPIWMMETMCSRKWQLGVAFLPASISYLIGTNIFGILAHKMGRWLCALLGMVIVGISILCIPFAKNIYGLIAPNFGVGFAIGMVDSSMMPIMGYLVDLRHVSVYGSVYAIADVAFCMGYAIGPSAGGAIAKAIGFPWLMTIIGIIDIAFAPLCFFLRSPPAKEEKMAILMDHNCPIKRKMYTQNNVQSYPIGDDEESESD
In assay [3] the target is Glucagon receptor (Homo sapiens, UniProt P47871).
Chain of Glucagon receptor (P47871 whole entry): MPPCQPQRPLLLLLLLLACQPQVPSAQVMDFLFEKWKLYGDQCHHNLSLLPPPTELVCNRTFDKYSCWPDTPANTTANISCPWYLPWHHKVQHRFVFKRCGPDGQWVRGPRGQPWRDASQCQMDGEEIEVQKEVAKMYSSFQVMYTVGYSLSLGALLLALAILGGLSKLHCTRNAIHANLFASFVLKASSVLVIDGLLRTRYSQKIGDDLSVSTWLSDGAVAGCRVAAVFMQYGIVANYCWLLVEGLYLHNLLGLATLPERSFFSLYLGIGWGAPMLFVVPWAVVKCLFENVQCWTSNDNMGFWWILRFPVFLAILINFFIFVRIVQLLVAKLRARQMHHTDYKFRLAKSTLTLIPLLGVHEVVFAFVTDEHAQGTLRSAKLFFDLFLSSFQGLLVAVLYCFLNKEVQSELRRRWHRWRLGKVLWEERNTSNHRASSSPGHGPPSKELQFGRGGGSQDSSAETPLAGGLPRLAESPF
Assay [4] addresses T2, D(4) dopamine receptor (Homo sapiens, UniProt P21917).
T2 sequence (P21917 whole entry): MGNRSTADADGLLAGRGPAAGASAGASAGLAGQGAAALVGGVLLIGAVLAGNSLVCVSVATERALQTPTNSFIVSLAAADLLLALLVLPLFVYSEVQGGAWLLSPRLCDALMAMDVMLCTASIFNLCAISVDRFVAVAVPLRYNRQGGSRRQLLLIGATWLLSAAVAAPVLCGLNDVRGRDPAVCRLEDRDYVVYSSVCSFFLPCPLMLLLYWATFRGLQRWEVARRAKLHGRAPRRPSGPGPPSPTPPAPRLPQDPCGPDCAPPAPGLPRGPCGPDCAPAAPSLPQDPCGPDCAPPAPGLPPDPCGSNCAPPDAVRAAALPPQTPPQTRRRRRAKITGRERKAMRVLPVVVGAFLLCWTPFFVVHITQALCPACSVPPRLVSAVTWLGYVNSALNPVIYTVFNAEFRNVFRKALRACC

The target of assay [5] is T3, Neuropeptide Y receptor type 2 (Homo sapiens, UniProt P49146).
T3 sequence (P49146 whole entry): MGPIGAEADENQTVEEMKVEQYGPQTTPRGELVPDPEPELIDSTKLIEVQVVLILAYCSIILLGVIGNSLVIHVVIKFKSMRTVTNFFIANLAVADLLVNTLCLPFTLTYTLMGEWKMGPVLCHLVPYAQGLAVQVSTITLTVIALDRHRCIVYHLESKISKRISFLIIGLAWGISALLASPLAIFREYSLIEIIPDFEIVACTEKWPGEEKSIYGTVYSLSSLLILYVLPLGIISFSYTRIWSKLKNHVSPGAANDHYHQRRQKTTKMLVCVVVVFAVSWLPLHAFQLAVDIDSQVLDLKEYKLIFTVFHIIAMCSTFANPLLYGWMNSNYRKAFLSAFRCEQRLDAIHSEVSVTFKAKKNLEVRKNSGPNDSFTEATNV

Assay [6] addresses Estrogen receptor beta (Homo sapiens, UniProt Q92731).
Assay [7] deals with 5-hydroxytryptamine receptor 6 (Homo sapiens, UniProt P50406).
Chain of 5-hydroxytryptamine receptor 6 (P50406 whole entry): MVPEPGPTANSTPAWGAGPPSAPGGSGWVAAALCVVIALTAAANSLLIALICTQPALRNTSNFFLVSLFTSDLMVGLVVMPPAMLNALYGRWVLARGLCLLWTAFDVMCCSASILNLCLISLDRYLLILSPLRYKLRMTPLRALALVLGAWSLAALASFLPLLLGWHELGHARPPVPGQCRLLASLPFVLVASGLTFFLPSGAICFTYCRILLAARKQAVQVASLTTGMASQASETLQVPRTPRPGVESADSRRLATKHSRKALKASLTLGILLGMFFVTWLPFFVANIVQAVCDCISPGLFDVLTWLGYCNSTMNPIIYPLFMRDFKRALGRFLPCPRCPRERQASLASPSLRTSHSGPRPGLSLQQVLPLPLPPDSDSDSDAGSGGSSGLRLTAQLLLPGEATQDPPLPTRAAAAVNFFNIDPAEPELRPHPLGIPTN
Assay [8] deals with Beta-3 adrenergic receptor (Homo sapiens, UniProt P13945).
Chain of Beta-3 adrenergic receptor (P13945 whole entry): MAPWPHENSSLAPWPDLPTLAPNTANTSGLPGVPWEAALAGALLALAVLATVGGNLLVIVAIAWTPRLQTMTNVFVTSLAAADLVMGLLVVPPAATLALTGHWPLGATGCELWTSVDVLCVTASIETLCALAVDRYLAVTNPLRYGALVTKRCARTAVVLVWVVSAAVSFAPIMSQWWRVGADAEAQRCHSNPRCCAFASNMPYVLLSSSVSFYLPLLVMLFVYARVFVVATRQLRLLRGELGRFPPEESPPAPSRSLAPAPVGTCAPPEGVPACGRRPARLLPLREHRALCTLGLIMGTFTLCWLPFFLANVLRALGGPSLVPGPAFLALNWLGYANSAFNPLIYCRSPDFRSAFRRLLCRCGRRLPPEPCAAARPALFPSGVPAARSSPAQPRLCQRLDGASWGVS
Assay [9] has as its target T4, Corticotropin-releasing factor receptor 2 (Homo sapiens, UniProt Q13324).
T4 sequence (Q13324 whole entry): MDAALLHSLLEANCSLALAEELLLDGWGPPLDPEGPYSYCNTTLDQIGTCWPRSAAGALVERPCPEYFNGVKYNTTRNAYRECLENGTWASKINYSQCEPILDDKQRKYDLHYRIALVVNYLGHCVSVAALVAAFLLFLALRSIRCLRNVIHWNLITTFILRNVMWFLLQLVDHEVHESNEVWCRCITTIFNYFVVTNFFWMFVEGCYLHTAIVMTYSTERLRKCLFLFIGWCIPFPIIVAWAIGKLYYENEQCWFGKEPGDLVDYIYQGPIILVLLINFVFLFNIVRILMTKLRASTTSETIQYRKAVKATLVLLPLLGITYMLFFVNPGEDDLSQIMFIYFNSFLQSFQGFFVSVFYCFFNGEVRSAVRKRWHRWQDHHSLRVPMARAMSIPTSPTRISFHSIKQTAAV

The target in assay [10] is T5, Endothelin receptor type B (Homo sapiens, UniProt P24530).
T5 sequence (P24530 whole entry): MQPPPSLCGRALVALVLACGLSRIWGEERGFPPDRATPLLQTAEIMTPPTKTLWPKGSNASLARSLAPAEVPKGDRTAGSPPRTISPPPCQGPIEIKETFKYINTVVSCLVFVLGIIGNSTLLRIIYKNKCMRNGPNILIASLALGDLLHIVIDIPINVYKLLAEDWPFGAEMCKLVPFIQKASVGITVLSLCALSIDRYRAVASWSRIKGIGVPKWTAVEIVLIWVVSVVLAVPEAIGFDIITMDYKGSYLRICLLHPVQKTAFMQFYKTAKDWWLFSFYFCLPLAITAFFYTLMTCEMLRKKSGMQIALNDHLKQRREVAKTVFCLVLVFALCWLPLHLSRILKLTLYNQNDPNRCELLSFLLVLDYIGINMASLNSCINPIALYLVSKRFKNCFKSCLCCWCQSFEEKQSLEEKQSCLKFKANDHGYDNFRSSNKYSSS

The target of assay [11] is D(1A) dopamine receptor (Homo sapiens, UniProt P21728).
Chain of D(1A) dopamine receptor (P21728 whole entry): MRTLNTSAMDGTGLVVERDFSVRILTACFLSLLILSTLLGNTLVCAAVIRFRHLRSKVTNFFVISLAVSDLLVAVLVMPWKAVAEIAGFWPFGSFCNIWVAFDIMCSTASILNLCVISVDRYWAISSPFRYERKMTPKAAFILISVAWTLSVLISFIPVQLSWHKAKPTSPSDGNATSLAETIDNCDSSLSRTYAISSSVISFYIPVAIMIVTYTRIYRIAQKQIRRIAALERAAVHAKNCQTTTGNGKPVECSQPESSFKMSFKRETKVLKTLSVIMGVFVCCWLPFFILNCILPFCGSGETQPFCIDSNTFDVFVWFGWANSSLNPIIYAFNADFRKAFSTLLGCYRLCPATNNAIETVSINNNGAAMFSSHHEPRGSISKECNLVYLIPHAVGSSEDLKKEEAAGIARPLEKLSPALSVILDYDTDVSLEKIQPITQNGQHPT
Further: assay procedure not described here.

Chain of Estrogen receptor beta (Q92731 whole entry): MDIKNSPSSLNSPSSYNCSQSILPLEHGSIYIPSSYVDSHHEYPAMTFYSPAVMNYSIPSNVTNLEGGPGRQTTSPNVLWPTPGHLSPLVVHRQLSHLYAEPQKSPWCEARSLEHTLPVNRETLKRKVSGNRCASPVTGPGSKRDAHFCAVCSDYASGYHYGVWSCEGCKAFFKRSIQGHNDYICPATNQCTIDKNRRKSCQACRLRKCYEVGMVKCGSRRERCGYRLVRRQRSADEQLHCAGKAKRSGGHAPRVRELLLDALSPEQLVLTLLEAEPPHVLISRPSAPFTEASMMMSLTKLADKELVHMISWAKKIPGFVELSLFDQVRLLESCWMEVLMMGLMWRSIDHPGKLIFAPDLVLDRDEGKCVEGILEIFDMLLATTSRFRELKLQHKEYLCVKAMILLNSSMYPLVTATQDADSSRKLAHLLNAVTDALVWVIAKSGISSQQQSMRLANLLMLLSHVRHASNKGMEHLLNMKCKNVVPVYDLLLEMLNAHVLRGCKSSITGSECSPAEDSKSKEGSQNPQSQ

Broadly, the AC50 is the midpoint of the concentration-response curve, whichever way the signal moves. The low end stands for activity at low concentration, the high end for activity only at high concentration. Turning to `CC(=O)OC[C@H]1O[C@@H](n2ccc(=O)[nH]c2=O)[C@H](OC(C)=O)[C@@H]1OC(C)=O` [URIDINE TRIACETATE], the AC50 in [1] and in [2] was over 30 µM in each case.

Take `O=C1c2c(O)c(=O)ccn2N([C@@H]2c3ccccc3SCc3c2ccc(F)c3F)[C@@H]2COCCN12` [BALOXAVIR]: the AC50 was over 30 µM in [1] and 22 µM in assay [2].

Consider `CCOC(=O)N[C@@H]1CC[C@@H]2[C@@H](C1)C[C@H]1C(=O)O[C@H](C)[C@H]1[C@H]2/C=C/c1ccc(-c2cccc(F)c2)cn1` [VORAPAXAR], for which the figures for the AC50 in [1] and in assay [2] were over 30 µM and 1.3 µM, respectively.

For `COc1cc(Nc2c(C#N)cnc3cc(OCCCN4CCN(C)CC4)c(OC)cc23)c(Cl)cc1Cl` [BOSUTINIB], the AC50 is over 30 µM in assay [3]; over 10 µM in assay [4]; over 30 µM in [5]; over 10 µM in [1]; over 30 µM in [6]; over 10 µM in [7]. The AC50 in assay [8] is 16.8 µM; in [9] it was over 30 µM; in assay [10], over 30 µM; in assay [11], over 10 µM.

On to `CN(CCOc1ccc(NS(C)(=O)=O)cc1)CCc1ccc(NS(C)(=O)=O)cc1` [DOFETILIDE], for which the AC50 is over 30 µM in assay [3]; over 10 µM in assay [4]; over 30 µM in [5]; over 30 µM in assay [1]; over 30 µM in assay [8]; over 30 µM in assay [9]. Also, the AC50 is over 30 µM in [10], 1.7 µM in assay [2] and over 10 µM in [11].

In turn, `CC(O)CO` (stereo unspecified) [PROPYLENE GLYCOL] had an AC50 in assay [2] of over 30 µM.

As for `CC(C)OC(=O)[C@H](C)N[P@](=O)(OC[C@H]1O[C@@H](n2ccc(=O)[nH]c2=O)[C@](C)(F)[C@@H]1O)Oc1ccccc1` [SOFOSBUVIR], the AC50 in assay [1] and in assay [2] was over 30 µM each time.

In turn, `OC[C@@H](O)[C@@H](O)[C@H](O)[C@H](O)CO` [MANNITOL] gave an AC50 in assay [2] of over 30 µM.

For `NC(=O)c1cnccn1` [PYRAZINAMIDE], the AC50 is over 30 µM in assay [3]; over 10 µM in assay [4]; over 30 µM in [5]; over 30 µM in [6]; over 10 µM in [7]; over 30 µM in [8]. In addition, the AC50 in [9] is over 30 µM; in assay [10], over 30 µM; in assay [11] it was over 10 µM.

Consider `CN1C(=O)CC(C)(c2ccccc2)C1=O` (stereo unspecified) [METHSUXIMIDE], for which, in assay [2], the AC50 is over 30 µM.

`Nc1nc(N)c2nc(-c3ccccc3)c(N)nc2n1`: the AC50 is over 30 µM in assay [3]; over 10 µM in [4]; over 30 µM in assay [5]; over 30 µM in [6]; over 10 µM in assay [7]; over 30 µM in [8]. The AC50 in assay [9] was over 30 µM; in [10] it was over 30 µM; in assay [11], over 10 µM.

As to `COc1cc2c(cc1OC)C(=O)C(CC1CCN(Cc3ccccc3)CC1)C2` (stereo unspecified) [DONEPEZIL], the AC50 in assay [3] was over 30 µM; in assay [4], 0.824 µM; in assay [5] it was over 30 µM; in [1] it was over 30 µM; in [6] it was over 30 µM; in assay [7], over 10 µM. Moreover, the AC50 was over 30 µM in [8], over 30 µM in assay [9], over 30 µM in assay [10] and over 10 µM in assay [11].

Take `C[C@H]1O[C@H](O[C@H]2[C@H](O)[C@@H](O)[C@@H](O[C@H]3[C@H](O)[C@@H](O)C(O)O[C@@H]3CO)O[C@@H]2CO)[C@H](O)[C@@H](O)[C@@H]1N[C@H]1C=C(CO)[C@@H](O)[C@H](O)[C@H]1O` (stereo partly specified) [ACARBOSE]: the AC50 in assay [3] was over 30 µM; in assay [4] it was over 10 µM; in assay [5] it was over 30 µM; in assay [6], over 30 µM; in assay [7], over 10 µM; in assay [8], over 30 µM. Moreover, the AC50 was over 30 µM in assay [9], over 30 µM in assay [10] and over 10 µM in [11].

`O=C(COc1ccc(Cl)cc1)N1CCN(Cc2ccc3c(c2)OCO3)CC1` [FIPEXIDE]: the AC50 is over 30 µM in assay [1] and 0.15 µM in [2].

As to `CS(=O)(=O)c1ccc([C@@H](O)[C@@H](CO)NC(=O)C(Cl)Cl)cc1` [THIAMPHENICOL], in [2], the AC50 was over 30 µM.

`CCOC(=O)c1ccc(O)cc1` [ETHYLPARABEN]: the AC50 in [1] was over 30 µM; in assay [2], 22 µM.

As to `CCC[C@@H]1C[C@@H](C(=O)N[C@@H]([C@H]2O[C@H](SC)[C@H](O)[C@@H](O)[C@H]2O)[C@H](C)Cl)N(C)C1` [CLINDAMYCIN], the AC50 is over 30 µM in assay [3]; over 10 µM in assay [4]; over 30 µM in assay [5]; over 30 µM in assay [6]; over 30 µM in [8]; over 30 µM in assay [9]. Further, the AC50 was over 30 µM in [10], over 30 µM in [2] and over 10 µM in assay [11].
